Measurements from patent US12673961B2 (Agios Pharmaceuticals, Inc., priority 2022, dated 2026).

Molecular target: T1, human PAH with the R408W mutation (Homo sapiens, UniProt P00439, R408W)
T1 construct: expressed in transfected cells
T1 sequence (P00439 1-452 R408W): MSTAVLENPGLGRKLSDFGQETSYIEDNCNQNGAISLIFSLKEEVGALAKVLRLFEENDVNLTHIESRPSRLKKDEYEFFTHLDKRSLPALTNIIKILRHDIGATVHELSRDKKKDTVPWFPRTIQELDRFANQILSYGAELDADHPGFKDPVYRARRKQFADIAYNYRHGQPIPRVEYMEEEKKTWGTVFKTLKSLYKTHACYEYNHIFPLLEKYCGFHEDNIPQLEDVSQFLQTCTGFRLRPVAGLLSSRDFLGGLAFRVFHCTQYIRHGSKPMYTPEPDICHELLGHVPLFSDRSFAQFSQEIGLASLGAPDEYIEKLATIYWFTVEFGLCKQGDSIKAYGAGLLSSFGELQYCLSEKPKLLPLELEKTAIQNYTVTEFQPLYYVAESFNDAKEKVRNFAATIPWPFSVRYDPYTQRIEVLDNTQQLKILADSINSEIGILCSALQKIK
Assay: Cell Based Phenylalanine Flux Assay;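 further: Ten-point dose curve from 2-fold serial dilutions, run in duplicate at 0.5% DMSO final, tracer step used 20 µM sepiapterin and 800 µM labeled phenylalanine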
Settings: A375 cells expressing human R408W PAH; 24 hrs compound incubation; 13C-Tyrosine by LC-MS; average where tested multiple times; read-out: AC50

| SMILES | AC50 |
| --- | --- |
| Cc1cccc2cc([C@@H]3c4nc[nH]c4CCN3C(=O)c3oc([C@@H](C)O)nc3C(F)F)nn12 [Example 1164, (4-(difluoromethyl)-2-((R)-1-hydroxyethyl)oxazol-5-yl)((S)-4-(7-methylpyrazolo [1,5-a]pyridin-2-yl)-6,7-dihydro-1H-imidazo[4,5-c]pyridin-5(4H)-yl)methanone] | < 500 nM |
| Cc1ccc2cc([C@H]3c4nc[nH]c4CCN3C(=O)c3nnc(C(C)(C)F)o3)nn2c1 [Example 1170, (R)-(5-(2-fluoropropan-2-yl)-1,3,4-oxadiazol-2-yl)(4-(6-methylpyrazolo[1,5-a]pyridin-2-yl)-6,7-dihydro-1H-imidazo[4,5-c]pyridin-5(4H)-yl)methanone] | > 5000 nM |
| Cc1ncoc1C(=O)N1CCc2[nH]cnc2[C@@H]1c1cc2cccc(Cl)n2n1 [Example 1175, (R)-(4-(7-chloropyrazolo [1,5-a]pyridin-2-yl)-6,7-dihydro-1H-imidazo[4,5-c]pyridin-5(4H)-yl)(4-methyloxazol-5-yl)methanone] | 1000 to 5000 nM |
| Cc1ccn2nc([C@H]3c4nc[nH]c4CCN3C(=O)c3cnco3)cc2c1 [Example 1184, (R)-(4-(5-methylpyrazolo [1,5-a]pyridin-2-yl)-6,7-dihydro-1H-imidazo[4,5-c]pyridin-5(4H)-yl)(oxazol-5-yl)methanone] | 500 to 1000 nM |
| Cc1ccn2nc([C@@H]3c4nc[nH]c4CCN3C(=O)c3cnco3)cc2c1 [Example 1185, (S)-(4-(5-methylpyrazolo [1,5-a]pyridin-2-yl)-6,7-dihydro-1H-imidazo[4,5-c]pyridin-5(4H)-yl)(oxazol-5-yl)methanone] | 1000 to 5000 nM |
| Cc1c(-c2nnc(C(=O)N3CCc4[nH]cnc4[C@H]3c3cc4cccc(C)n4n3)o2)cnn1C [Example 1188, (S)-(5-(1,5-dimethyl-1H-pyrazol-4-yl)-1,3,4-oxadiazol-2-yl)(4-(7-methylpyrazolo[1,5-a]pyridin-2-yl)-6,7-dihydro-1H-imidazo[4,5-c]pyridin-5(4H)-yl)methanone] | 500 to 1000 nM |
| Cc1c(-c2nnc(C(=O)N3CCc4[nH]cnc4[C@H]3c3cc4cccc(C(F)(F)F)n4n3)o2)cnn1C [Example 1190, (S)-(5-(1,5-dimethyl-1H-pyrazol-4-yl)-1,3,4-oxadiazol-2-yl)(4-(7-(trifluoromethyl)pyrazolo[1,5-a]pyridin-2-yl)-6,7-dihydro-1H-imidazo [4,5-c]pyridin-5(4H)-yl)methanone] | 500 to 1000 nM |
| C[C@@H](O)c1nc(C(F)F)c(C(=O)N2CCc3[nH]cnc3[C@H]2c2cc3cccc(Cl)n3n2)o1 [Example 1196, ((S)-4-(7-chloropyrazolo [1,5-a]pyridin-2-yl)-6,7-dihydro-1H-imidazo[4,5-c]pyridin-5(4H)-yl)(4-(difluoromethyl)-2-((R)-1-hydroxyethyl)oxazol-5-yl)methanone] | < 500 nM |
| Cc1ncoc1C(=O)N1CCc2[nH]cnc2[C@H]1c1cc2cccc(C(F)(F)F)n2n1 [Example 1198] | 500 to 1000 nM |
| Cc1ncoc1C(=O)N1CCc2[nH]cnc2[C@@H]1c1cc2cccc(C(F)(F)F)n2n1 [Example 1199] | 1000 to 5000 nM |
| COc1cccn2nc([C@H]3c4nc[nH]c4CCN3C(=O)c3nnc(-c4cnn(C)c4C)o3)cc12 [Example 1207, (R)-(5-(1,5-dimethyl-1H-pyrazol-4-yl)-1,3,4-oxadiazol-2-yl)(4-(4-methoxypyrazolo [1,5-a]pyridin-2-yl)-6,7-dihydro-1H-imidazo[4,5-c]pyridin-5(4H)-yl)methanone] | > 5000 nM |
| Cc1c(-c2nnc(C(=O)N3CCc4[nH]cnc4[C@H]3c3cc4c(Cl)cccn4n3)o2)cnn1C [Example 1214, (S)-(4-(4-chloropyrazolo [1,5-a]pyridin-2-yl)-6,7-dihydro-1H-imidazo[4,5-c]pyridin-5(4H)-yl)(5-(1,5-dimethyl-1H-pyrazol-4-yl)-1,3,4-oxadiazol-2-yl)methanone] | < 500 nM |
| Cc1cccn2nc([C@@H]3c4nc[nH]c4CCN3C(=O)c3oc(C4(O)CC4)nc3C(F)F)cc12 [Example 1220, (S)-(4-(difluoromethyl)-2-(1-hydroxycyclopropyl)oxazol-5-yl)(4-(4-methylpyrazolo[1,5-a]pyridin-2-yl)-6,7-dihydro-1H-imidazo[4,5-c]pyridin-5(4H)-yl)methanone] | < 500 nM |
| Cn1cc(-c2nnc(C(=O)N3CCc4[nH]cnc4[C@H]3c3cc4cccc(F)n4n3)o2)cn1 [Example 1224, (S)-(4-(7-fluoropyrazolo[1,5-a]pyridin-2-yl)-6,7-dihydro-1H-imidazo[4,5-c]pyridin-5(4H)-yl)(5-(1-methyl-1H-pyrazol-4-yl)-1,3,4-oxadiazol-2-yl) methanone] | 500 to 1000 nM |
| O=C(c1nnc(C2CC2)o1)N1CCc2[nH]cnc2[C@H]1c1cc2cccc(F)n2n1 [Example 1246, (S)-(5-cyclopropyl-1,3,4-oxadiazol-2-yl)(4-(7-fluoropyrazolo[1,5-a]pyridin-2-yl)-6,7-dihydro-1H-imidazo[4,5-c]pyridin-5(4H)-yl)methanone] | 500 to 1000 nM |
| O=C(c1nnc(C2CC2)o1)N1CCc2[nH]cnc2[C@@H]1c1cc2cccc(F)n2n1 [Example 1247, (R)-(5-cyclopropyl-1,3,4-oxadiazol-2-yl)(4-(7-fluoropyrazolo[1,5-a]pyridin-2-yl)-6,7-dihydro-1H-imidazo[4,5-c]pyridin-5(4H)-yl)methanone] | 1000 to 5000 nM |

Other lines, results leading:

| AC50 | SMILES |
| --- | --- |
| 500 to 1000 nM | O=C(c1nnc(-c2ccncn2)o1)N1CCc2[nH]cnc2[C@H]1c1cc2c(F)cccn2n1 [Example 1258, (S)-(4-(4-fluoropyrazolo[1,5-a]pyridin-2-yl)-6,7-dihydro-1H-imidazo[4,5-c]pyridin-5(4H)-yl)(5-(pyrimidin-4-yl)-1,3,4-oxadiazol-2-yl)methanone] |
| < 500 nM | Cc1nc(C(C)(C)F)oc1C(=O)N1CCc2[nH]cnc2[C@H]1c1cc2cccc(C(F)(F)F)n2n1 [Example 1265, (S)-(2-(2-fluoropropan-2-yl)-4-methyloxazol-5-yl)(4-(7-(trifluoromethyl)pyrazolo [1,5-a]pyridin-2-yl)-6,7-dihydro-1H-imidazo[4,5-c]pyridin-5(4H)-yl)methanone] |
| < 500 nM | Cc1cccc2cc([C@@H]3c4nc[nH]c4CCN3C(=O)c3oc(C4(O)CC4)nc3C(F)F)nn12 [Example 1280, (S)-(4-(difluoromethyl)-2-(1-hydroxycyclopropyl)oxazol-5-yl)(4-(7-methylpyrazolo[1,5-a]pyridin-2-yl)-6,7-dihydro-1H-imidazo[4,5-c]pyridin-5(4H)-yl)methanone] |
| < 500 nM | COc1ccc(-c2nnc(C(=O)N3CCc4[nH]cnc4[C@H]3c3cc4c(Cl)cccn4n3)o2)nc1 [Example 1299, (S)-(4-(4-chloropyrazolo [1,5-a]pyridin-2-yl)-6,7-dihydro-1H-imidazo[4,5-c]pyridin-5(4H)-yl)(5-(5-methoxypyridin-2-yl)-1,3,4-oxadiazol-2-yl)methanone] |
| 1000 to 5000 nM | Cc1ncccc1-c1nnc(C(=O)N2CCc3[nH]cnc3[C@@H]2c2cc3c(C(F)(F)F)cccn3n2)o1 [Example 1305, (R)-(5-(2-methylpyridin-3-yl)-1,3,4-oxadiazol-2-yl)(4-(4-(trifluoromethyl)pyrazolo [1,5-a]pyridin-2-yl)-6,7-dihydro-1H-imidazo[4,5-c]pyridin-5(4H)-yl)methanone] |
| < 500 nM | O=C(c1nnc(-c2ccccn2)o1)N1CCc2[nH]cnc2[C@H]1c1cc2c(C(F)F)cccn2n1 [Example 1314, (S)-(4-(4-(difluoromethyl)pyrazolo[1,5-a]pyridin-2-yl)-6,7-dihydro-1H-imidazo [4,5-c]pyridin-5(4H)-yl)(5-(pyridin-2-yl)-1,3,4-oxadiazol-2-yl)methanone] |
| 1000 to 5000 nM | O=C(c1nnc(-c2ccccn2)o1)N1CCc2[nH]cnc2[C@@H]1c1cc2c(C(F)F)cccn2n1 [Example 1315, (R)-(4-(4-(difluoromethyl)pyrazolo[1,5-a]pyridin-2-yl)-6,7-dihydro-1H-imidazo [4,5-c]pyridin-5(4H)-yl)(5-(pyridin-2-yl)-1,3,4-oxadiazol-2-yl)methanone] |
| 1000 to 5000 nM | Cc1cccc2cc([C@H]3c4nc[nH]c4CCN3C(=O)c3nnc(C4(C)CC4)o3)nn12 [Example 1318, (R)-(5-(1-methylcyclopropyl)-1,3,4-oxadiazol-2-yl)(4-(7-methylpyrazolo[1,5-a]pyridin-2-yl)-6,7-dihydro-1H-imidazo[4,5-c]pyridin-5(4H)-yl)methanone] |
| < 500 nM | COc1cccn2nc([C@@H]3c4nc[nH]c4CCN3C(=O)c3cnn4ccccc34)cc12 [Example 1326, (S)-(4-(4-methoxypyrazolo [1,5-a]pyridin-2-yl)-6,7-dihydro-1H-imidazo [4,5-c]pyridin-5(4H)-yl)(pyrazolo[1,5-a]pyridin-3-yl)methanone] |
| > 5000 nM | Cc1ncccc1-c1nnc(C(=O)N2CCc3[nH]cnc3[C@@H]2c2cc3c(F)cccn3n2)o1 [Example 1329, (R)-(4-(4-fluoropyrazolo [1,5-a]pyridin-2-yl)-6,7-dihydro-1H-imidazo[4,5-c]pyridin-5(4H)-yl)(5-(2-methylpyridin-3-yl)-1,3,4-oxadiazol-2-yl)methanone] |
| < 500 nM | O=C(c1nnc(-c2cnccn2)o1)N1CCc2[nH]cnc2[C@H]1c1cc2c(Cl)cccn2n1 [Example 1332, (S)-(4-(4-chloropyrazolo [1,5-a]pyridin-2-yl)-6,7-dihydro-1H-imidazo[4,5-c]pyridin-5(4H)-yl)(5-(pyrazin-2-yl)-1,3,4-oxadiazol-2-yl)methanone] |
